Measured values from ChEMBL document CHEMBL1159276, “Sinugibberol, a new cytotoxic cembranoid diterpene from the soft coral Sinularia gibberosa” (1995).
≈ marks a conversion by molar mass, not a printed value.

Columns and labels:
P388 = test: Cytotoxicity against mouse P388 cells by MTT method; assay type: functional; details: read-out: ED50 (the source's name)
HT-29 = test: Cytotoxicity against human HT-29 cells after 6 days by MTT method; assay type: functional; details: HT-29, 144 h, read-out: ED50 (the source's name)

C/C1=C\CC[C@@]2(C)O[C@@H]2/C=C(/C(C)(C)O)CC[C@@]2(C)O[C@@H]2CC1 [SINUGIBBEROL] gave an EC50 (P388) of 11.7 mg/L (≈ 36.5 µM) and an EC50 (HT-29) of 0.5 mg/L (≈ 1.56 µM).
